Measured values reported in patent US7115589B2, “Purine derivatives” (ARIAD Pharmaceuticals, Inc., priority 1999, dated 2006).

CCOP(=O)(OCC)c1ccc(Nc2nc(C3CCCC3)nc3c2ncn3C(C)C)cc1
melting point: 117 to 118 °C
